For test [1], the system named is keratinocytes. Put plainly: Cytokine secretion in stimulated keratinocytes treated with PKCδ activator (ELISA). The format is cell-based, BALB/C mice. The settings on record: stimulated by LPS or TNFα, 48 hr. The procedure: (§1) PKCδ activators were also shown to have an anti-inflammatory effect on keratinocytes and splenocytes. Keratinocytes were derived from newborn BALB/C mice skin. The cells were incubated for 5 days in 24 wells plate. Cells were then incubated with PBS −/− as control or stimulated by LPS or TNFα. The PKCδ […] DAP-1 (SEQ ID NO: 34) was added. Medium containing secreted cytokines was collected after 48 hr and analyzed using ELISA. FIG. 43 is a tabular summary showing cytokine secretion in splenocytes stimulated with LPS. FIG. 44 is a tabular summary of cytokine secretion in keratinocytes stimulated by TNFα.

Test [2] concerns splenocytes. Put plainly: Cytokine secretion in LPS stimulated splenocytes treated with PKCδ activator. It is filed as cell-based. As to the method:
as §1

The test system of test [3] is histamine induced pruritus. Put plainly: Histamine prick test model of pruritus. It is filed as in vivo, healthy volunteers. Particulars: for Pruritus score: scale 0-4, individual subject. The procedure: Forearms of individual subjects were injected with histamine solution and placebo. The formulation of Example 4 was topically applied with MPDY-1 at various concentrations and pruritus was assessed over a time course as shown in FIGS. 39-42.
This test was performed by placing a drop of a solution containing a possible allergen on the skin, and a series of scratches or needle pricks allow the solution to enter the skin. The extract enters into the outer layer of the skin (epidermis) using a fine needle (such as a. 26G disposable needle). This testing is not painful, and generally there is no bleeding involved since the needle only scratches the surface of the skin. If the skin develops a red, raised itchy area (called a wheal), it is as a result of allergic reaction to that allergen. This is called a positive reaction. A drop of extract is introduced through a fine needle (such as a No. 26 disposable needle). The test causes no discomfort and minimal trauma so that controls and negative test show only the site of the prick; if anything.
26G needles were utilized to introduce histamine stock (Histatrol Positive Control Histamine, 1 mg/ml, code #HIST14999V, Trupharm). The test was conducted on healthy volunteers in a double-blind, randomized test. The formulations were applied on the forearms. Three treatment areas were chosen and marked (the surface of the forearm from the elbow to the wrist was divided transversely into proximal, middle and distal thirds); the areas were pricked prior the below treatments.
An area was treated with the active formulation in a double-blind manner, for 10 minutes—marked as A.
An area was treated with the Placebo in a double-blind manner, for 10 minutes—marked as C.
A color photograph was taken at time zero (T0), after 10, 20, 30 minutes.
Pruritus questionnaire was answered by the subjects 5 and 15 minutes after treatment.
Subjects were provided with pruritus sensation forms and asked to indicate the level of pruritus sensed from 0 (no response) to 4 (uncontrollable pruritus) at different time intervals.

Test [4] relates to macrophages. Kind of test: Macrophage infiltration in skin wound (Iba-1 staining). The format is in vivo, C57BL/6J mouse. The settings on record: daily treatment, five days post-wounding. The procedure: The effect of MPDY-1 on macrophage infiltration was also shown by Iba-1 staining. Iba-1 is a general marker for macrophages. […] As above, a two-cm longitudinal incision was done on the upper back of a C57BL/6J mouse. Following wounding, a sterile pad was sutured to the mouse's skin. Animals were treated daily with MPDY-1 (n=6). Five days post-wounding, when inflammatory phase reaches its peak, the mice were sacrificed, skin tissues were embedded in paraffin and immunohistochemical staining was performed utilizing anti-Iba-1 antibodies.

In test [5] the test system is IKK. Kind of test: TNFα induced IKK activation in keratinocytes (phospho-IKKa/b Western blot). The settings on record: 1 hour pretreatment, TNFα 35 ng/ml 15 minutes. It is filed as cell-based, Murine. The procedure:
Murine primary keratinocytes were grown for 4 days to full confluence in Low Ca^+2 MEM. Cells were pretreated with designated concentration of MPDY-1 as described in the figure for 1 hour, prior to TNFα induction. Following MPDY-1 pretreatment, cells were incubated with TNFα 35 ng/ml for 15 minutes. Reaction was stopped by adding ice-cold dPBS−/− and keratinocytes were homogenized in RIPA buffer. Samples were subjected to SDS PAGE Western Blot analysis, utilizing phospho-IKKa/b (Ser176/180 antibody).
On the technique in general: Immunoblotting shows a protein as a band on a membrane.

The test system of test [6] is EAE mice. Kind of test: Experimental allergic encephalomyelitis (EAE), MOG35-55/CFA immunized mice. It is filed as in vivo, C57BL/6J mice. The settings on record: for Score on day 18 / Score on day 29 / Score on day 37: EAE scale 0-6; for EAE score on the initial day: scale 0-6.
For test [7], the system named is activated macrophages. Kind of test: Macrophage activation in skin wound (MAC-2 staining). The format is in vivo, C57BL/6J mouse. The settings on record: daily treatment, 5 days; p(control vs 10 μg)=0.0028. The procedure:
The effect of MPDY-1 on macrophage activation was also shown by MAC-2 staining. MAC-2 is a specific marker for activated macrophages. […] A two-cm longitudinal incision was done as described above. Animals were treated daily with DPBS^−/− (Control) or MPDY-1 in the specified concentrations (n=6). After 5 days immunohistochemical staining was performed utilizing anti-MAC-2 antibodies. Bar […]. (*p(control Vs. MPDY-1 10 μg)=0.0028).

The subject of test [8] is STZ-induced diabetic C57BL/6J mice. Kind of test: Wound healing in STZ-induced diabetic mice. The format is in vivo. The procedure: Full thickness skin incisions (20 mm) were performed on the upper back of anesthetized streptozocin (STZ)-injected (175 mg/kg body weight) diabetic, citrate buffer injected (6 mice/group) non-diabetic, and non-injected (6 mice/group), C57BL/6J mice. Periodical blood glucose monitoring was performed by measuring glucose levels from tail vein after STZ injection. […] Following incision, STZ-induced diabetic wounds were treated daily by application of PBS (7/6 mice/group), insulin (0.1 units/ml) (6 mice/group), the PKCa inhibitor of SEQ ID NO:6 (1 μg/ml) (7/5 mice/group) or a formulation (herein designated HO/03/03) containing insulin and the N-myristoylated PKCα inhibitor of SEQ ID NO: 6 (7/6 mice/group) directly to the surgical dressing. Biopsies were collected 9 days post-wounding. Wounds were excised from euthanized animals for evaluation of wound-healing parameters by histology and immunohistochemistry.
Wounds were assessed for epidermal closure by Keratin 14 staining. Wounds were considered closed when complete epidermal staining was observed across the wound gap. Dermal contraction was considered when both dermal edges were visible in a fixed field ×100 magnification utilizing H&E staining. Epidermal differentiation was assessed by Keratin 1 staining.
The organization of hypodermis was assessed by the presence (or absence) of hypodermis at both wound edges. Granulation tissue formation was assessed by the presence of fibroblasts and collagen fibers in the wound bed. The wound was considered positive for granulation tissue formation when a continuous layer of granulation tissue was present in the wound gap. In addition, we have defined 3 specific histological parameters characterizing severe inflammation of diabetic wounds: (i) abscess formation at the wounded area, (ii) excessive leukocytosis (>100 cells in a fixed field (×200)) and (iii) high white blood cells (WBC)/red blood cells (RBC) ratio within the blood vessels shown in a fixed field (×200). When at least 2 of these parameters are present at the wound gap, the wound is considered severely inflamed.

Test [9] has as its system keratinocytes. Kind of test: Cytokine secretion in LPS, TNFα or IL-17 activated keratinocytes treated with peptide PKCα inhibitors (ELISA). The format is cell-based, BALB/C mice. As to the method:
To determine their effects, keratinocytes were derived from newborn BALB/C mice skin. The cells were incubated for 5 days in 24 wells plate. Cells were then incubated with PBS −/− as control or stimulated by LPS, TNFα, or IL-17. PKCα inhibitors were added as indicated. Medium containing secreted cytokines was collected after 48 hr and analyzed using ELISA. FIG. 50 is a tabular summary of cytokine secretion.
A general note: ELISA stands for enzyme-linked immunosorbent assay.

Test [10] relates to C57BL mice. Kind of test: Incision wounds treated 7 days, severe inflammation incidence (Example 10). Particulars: 1 μM daily for 7 days. The format is in vivo. As to the method: Wounds were performed on the back of C57BL mice by incision and were treated daily for 7 days with: (i) PBS, control; (ii) 1 μM of the PKCα inhibitor of SEQ ID NO: 6; (iii) 1 μM insulin (Humulin, Eli Lilly, USA); or (iv) a mixture of 1 μM PKCα inhibitor and 1 μM insulin.

The mark [11] stands for this setting: 9-days post wounding, percent of wounds in group, insulin 0.1 units, HO/02 1 ug/ml.
The mark [12] stands for this setting: 9-days post wounding, percent of wounds in group, insulin 0.1 units, SEQ ID NO: 6 1 ug/ml.

Entries after “also recorded” stand apart in the source; their conditions may differ. The star is where a group is joined. Myristoyl = CCCCCCCCCCCCCC(=O)*

With “H-His-Phe-Glu-Asp-Trp-Ile-Asp-His-Phe-Glu-Asp-Trp-Ile-Asp-OH (H-HFEDWIDHFEDWID-OH) [DAP-1]”, the “inflammatory cytokine secretion in keratinocytes” value in test [1] was “significantly decease inflammatory cytokine secretion”. In [2], the “inflammatory cytokine secretion in splenocytes” value is “significantly decease inflammatory cytokine secretion”.
“Myristoyl-Phe-Ala-Arg-Lys-Gly-Ala-Leu-Arg-Gln-OH (Myristoyl-FARKGALRQ-OH; SMILES CCCCCCCCCCCCCC(=O)N[C@@H](Cc1ccccc1)C(=O)N[C@@H](C)C(=O)N[C@@H](CCCNC(=N)N)C(=O)N[C@@H](CCCCN)C(=O)NCC(=O)N[C@@H](C)C(=O)N[C@@H](CC(C)C)C(=O)N[C@@H](CCCNC(=N)N)C(=O)N[C@@H](CCC(N)=O)C(=O)O) [MPDY-1]” had a Pruritus score in [3] (5 minutes after histamine, MPDY-1 1 μg/ml (A1)) of 3. Further, the Pruritus score in test [3] (5 minutes after histamine, MPDY-1 10 μg/ml (A2)) was determined as 2. Further, in test [3] (15 minutes after histamine, MPDY-1 1 μg/ml (A1)), the Pruritus score is on record as 1. Moreover, the Pruritus score in test [3] (15 minutes after histamine, MPDY-1 10 μg/ml (A2)) is on record as 0. Further, the “redness, inflammation and pruritus compared with control over the time course” value in test [3] (topical application) is “significantly attenuated redness, inflammation and pruritus”. For the same substance, in [4], the “macrophage infiltration (Iba-1 positive cells per field)” value is reported as “dose dependent effect”. Moreover, in test [5], the “TNFα induced IKK activation in keratinocytes” value is reported as “significantly reduced TNFα induced IKK activation” and the “concentration exhibiting the strongest inhibition of IKK activation (lowest concentration)” value was 0.1 mg/mL. Moreover, in test [6] (0.1 mg/kg), the “The initial day (of illness signs)” value was 13 days, the “Score on day 18” value was found to be 2.571, the “Score on day 29” value was 2.000 and the “Score on day 37” value amounted to 1.500. The “EAE score on the initial day” value in [6] (0.1 mg/kg) was 1.000. In [6] (0.1 mg/kg (0.1 μg/ml)), the “EAE severity / score compared to control group” value is reported as “lower score during most of the experiment days; also recorded: reduced EAE severity” and the “delay of development of EAE clinical conditions compared to control group” value is given as “two days later than the control group; also recorded: two days delay”. In test [6] (1 mg/kg), the “The initial day (of illness signs)” value worked out at 11 days, the “Score on day 18” value was determined as 3.143, the “Score on day 29” value is 3.286 and the “Score on day 37” value came out at 3.071. In addition, in [6] (1 mg/kg), the “EAE score on the initial day” value came to 0.214. The “Number of dead mice during 49 days” value in [6] (1 mg/kg i.p. three times a week, n=7) amounted to 2. Moreover, the “average group score at the end of the experiment (day 42)” value in [6] (concentration of 0.1 μg/ml, control group score 2.86) amounted to 1.93. Further, in [7], the “activation of macrophages (MAC-2 positive cells per field)” value is reported as “significantly inhibited”. In [8] (setting [11]), the “Dermal closure (H&E)” value was found to be 17%, the “Epidermal closure (K14)” value stood at 17% and the “Epidermal differentiation (Kl)” value is listed as 17%. For the same substance, in test [8] (setting [12]), the Granulation tissue is reported as 50%, the Hypodermis is 10% and the Severe inflammation came to 30%. The “overall healing effect in diabetic wounds” value in test [8] (9 days post-wounding) is given as “only partial healing effects”. Also, the “cytokine secretion from IL-17A activated keratinocytes” value in test [9] (IL-17A activated) is given as “decrease cytokine secretion”. In [9] (LPS and TNFα activated), the “cytokine secretion from LPS and TNFα activated keratinocytes” value is reported as “decrease cytokine secretion”. Besides, the “cytokine secretion in keratinocytes” value in [9] (stimulated by LPS, TNFα, or IL-17, medium collected after 48 hr) is on record as “effective in decreasing cytokine secretion”. Besides, the “decrease of severe wound inflammation incidence, as compared to control” value in test [10] was determined as 33.3%. The “Incidence of severe inflammation in wound (%)” value in test [10] (PBS control 60) stood at 40%.

The values are drawn from patent publication US20130274196A1, “METHOD FOR TREATMENT OF INFLAMMATORY DISEASE AND DISORDER” (HEALOR LTD., priority 2010, published 2013).
